Test results as given in US20130289520A1, “TARGETED AND LIGHT-ACTIVATED CYTOSOLIC DRUG DELIVERY” (CHILDREN'S HOSPITAL BOSTON, priority 2010, published 2013).

Columns and labels:
LN-229 cells [1] = assay: Light-induced cytosolic release of NP cargo after endocytosis; format: cell-based, human; details: co-incubated overnight with PEI-PEG coated NPs; green light
Procedure: Following overnight NP endocytosis, cells were exposed to green excitation light (520-550 nm, MWIG3/TRITC filter) for durations ranging from 3 s to 120 s. […] Confocal micrographs were analyzed using the software package Image-J. Average cell fluorescence was determined by manual contouring of cell borders. Data were then imported into Matlab (The Mathworks) for analysis and plotting purposes. The amount of dye released in the cell cytosol following light stimulation was taken as the difference in average cell fluorescence before and after light exposure.

LN-229 cells [2] = assay: Light-activated cytosolic delivery of co-endocytosed dextran, NeutrAvidin and QD; format: cell-based, human; details: for cytosolic delivery of co-endocytosed macromolecule or particle after light stimulation of NPs: LN-229 cells, overnight co-endocytosis with NPs, TRITC-filtered light 30 to 120 s
Procedure: We then determined whether the NPs could liberate co-endocytosed macromolecules and nanoparticles. […] In this experiment, one set of LN-229 cells was incubated with NPs loaded with a releasable cargo dye (Alexa 546), while a second set was incubated with NPs carrying a dye covalently bound to their matrix during synthesis (Alexa633; so it could not be released). The two cells populations were then plated together, and incubated in the presence of dextran-FITC. […] The lower release kinetics of dextran in the case of the covalently labeled Alexa633-NPs may be explained by a lower excitation efficiency of this fluorophore through the TRITC filter set used for exposure.
LN-229 cells were biotinylated at room temperature with NHS-PEO4-biotin in D-PBS (500 μM, Pierce) supplemented with 10 mM glucose for 30 min, washed ×5 in D-PBS, and trypsinized in 0.01% trypsin/EDTA. Cells were collected with DMEM-10% FBS, centrifuged for 5 min at 1,000 rpm, and resuspended in a 50 μg/mL solution of dye-loaded NP-streptavidin in D-PBS-glucose. After 30 min, the cells were washed twice in D-PBS, resuspended in DMEM-10% FBS, and plated on 12 mm glass coverslips at a density of ˜10^5 cells/cm^2. Dextran-FITC (3 kDa, Sigma), NeutrAvidin-FITC (Pierce), or QD525-streptavidin conjugates (Invitrogen) were added to the cells at respective concentrations of 1 mg/mL, 5 μg/mL, and 2 nM. Cells were placed in a 37° C. incubator overnight with 5% CO2 to allow for coverslip attachment and simultaneous endocytosis of the surface-bound NP-streptavidin conjugates, as well as dextran, NeutrAvidin, or QDs present in the culture medium. After overnight endocytosis, cells were washed twice in D-PBS, and transferred to a live-cell imaging chamber for light stimulation and observation in D-PBS supplemented with 10 mM glucose.
For experiments involving two types of NPs, the orange pseudo-colored NPs were the post-synthesis Alexa 546 loaded NPs used in all other experiments, while the red pseudo-colored NPs were covalently bound to Alexa 633 incorporated during synthesis of the NPs (1 μL of MPTMS and 20 μL of a 10 mM stock solution of Alexa 633-maleimide were incubated overnight at room temperature, and premixed with the silicate precursors before injection into the reaction mixture. Unreacted dye was removed during the surfactant extraction process). The “orange” nanoparticles can release part of their cargo, while the dye is irreversibly bound to the silica matrix for the “red” NPs. After trypsinization, the biotinylated LN-229 cells were incubated separately with each type of NP, and remixed at 1:1 before plating and overnight incubation with dextran-FITC.

For `O=C(O)CN(CC(=O)O)Cc1cc2c(cc1O)Oc1cc(O)c(CN(CC(=O)O)CC(=O)O)cc1C21OC(=O)c2ccccc21` [calcein], the “cytosolic release of co-endocytosed compound after light exposure” value (LN-229 cells [1]) was “cytosolic release”.
For “NeutrAvidin: NeutrAvidin-FITC protein conjugate (Pierce)”, the “cytosolic delivery of co-endocytosed macromolecule or particle after light stimulation of NPs” value (from here on “cytosolic delivery”) (LN-229 cells [2]) was “could also be delivered to the cell cytosol” and the “time to maximum cell fluorescence” value (LN-229 cells [2]; following the end of 120 s light exposure) was over 10 min.
For “quantum-dot-streptavidin conjugates: QD525-streptavidin conjugates (Invitrogen)”, the “cytosolic delivery” value (LN-229 cells [2]) was “remained clustered in the endo-lysosomal compartment” and the “cytosolic delivery” value (LN-229 cells [2]; listed as QD525-streptavidin) was “do not migrate into the cytosol”.
With dextran-FITC the “cytosolic delivery” value (LN-229 cells [2]) was “successfully mediated cytosolic delivery”.
